What was measured:
[1] = test system: ABUTH; test: Pre-emergence herbicidal action against ABUTH; assay type: in vivo, Abutilon theophrasti; details: Abutilon theophrasti, 504 h; for pest or weed control at 80 g/ha: scored visually after 3 weeks vs untreated controls (100% = plants have died, 0% = like control plants); for pest or weed control at 20 g/ha: dosage 20 g/ha, scored visually after 3 weeks vs untreated controls, 100% = plants have died, 0% = like control plants, read-out: Pre-emergence action against ABUTH (herbicidal activity in percent)
Outline: (§1)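 Pre-emergence soil-surface spray of formulated compound (WP or EC; 600 to 800 l/ha; 0.2% wetting agent) over seeds sown in sandy loam. After 3 weeks under greenhouse conditions, damage is estimated visually in percent against untreated plants.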

[2] = test system: ALOMY; test: Pre-emergence herbicidal action against ALOMY; assay type: in vivo, Alopecurus myosuroides; details: Alopecurus myosuroides, 504 h, pre-emergence; for pest or weed control at 80 g/ha: scored visually after 3 weeks vs untreated controls (100% = plants have died, 0% = like control plants); for pest or weed control at 20 g/ha: scored visually after 3 weeks, 100% = plants have died, 0% = like control plants
Outline: as §1

[3] = test system: AMARE; test: Pre-emergence herbicidal action against AMARE; assay type: in vivo, Amaranthus retroflexus; details: Amaranthus retroflexus, 504 h, scored visually after 3 weeks vs untreated controls, 100% = plants have died, 0% = like control plants
Outline: as §1

[4] = test system: AVEFA; test: Pre-emergence herbicidal action against AVEFA; assay type: in vivo, Avena fatua; details: Avena fatua, 504 h, pre-emergence; for pest or weed control at 20 g/ha: scored visually after 3 weeks, 100% = plants have died, 0% = like control plants
Outline: as §1

[5] = test system: ECHCG; test: Pre-emergence herbicidal action against ECHCG; assay type: in vivo, Echinochloa crus-galli; details: Echinochloa crus-galli, 504 h
Outline: as §1

[6] = test system: HORMU; test: Pre-emergence herbicidal action against HORMU; assay type: in vivo, Hordeum murinum; details: for pest or weed control at 80 g/ha: Hordeum murinum, 504 h, pre-emergence
Outline: as §1

[7] = test system: MATIN; test: Pre-emergence herbicidal action against MATIN; assay type: in vivo, Matricaria inodora; details: Tripleurospermum inodorum, 504 h; for pest or weed control at 20 g/ha: dosage 20 g/ha; for pest or weed control at 80 g/ha: dosage 80 g/ha
Outline: as §1

[8] = test system: PHBPU; test: Pre-emergence herbicidal action against PHBPU; assay type: in vivo, Pharbitis purpurea; details: Ipomoea purpurea, 504 h
Outline: as §1

[9] = test system: POLCO; test: Pre-emergence herbicidal action against POLCO; assay type: in vivo, Polygonum convolvulus; details: Fallopia convolvulus, 504 h, dosage 80 g/ha
Outline: as §1

[10] = test system: SETVI; test: Pre-emergence herbicidal action against SETVI; assay type: in vivo, Setaria viridis; details: Setaria viridis, 504 h; for pest or weed control at 20 g/ha: dosage 20 g/ha; for pest or weed control at 80 g/ha: dosage 80 g/ha
Outline: as §1

[11] = test system: STEME; test: Pre-emergence herbicidal action against STEME; assay type: in vivo, Stellaria media; details: Stellaria media, 504 h; for pest or weed control at 20 g/ha: dosage 20 g/ha; for pest or weed control at 80 g/ha: dosage 80 g/ha
Outline: as §1

[12] = test system: VIOTR; test: Pre-emergence herbicidal action against VIOTR; assay type: in vivo, Viola tricolor; details: Viola tricolor, 504 h; for pest or weed control at 20 g/ha: dosage 20 g/ha; for pest or weed control at 80 g/ha: dosage 80 g/ha
Outline: as §1

[13] = test system: DIGSA; test: Pre-emergence herbicidal action against DIGSA; assay type: in vivo, Digitaria sanguinalis; details: Digitaria sanguinalis, 504 h; for pest or weed control at 20 g/ha: dosage 20 g/ha; for pest or weed control at 80 g/ha: dosage 80 g/ha
Outline: as §1

[14] = test system: ABUTH; test: Post-emergence herbicidal action against ABUTH; assay type: in vivo, Abutilon theophrasti; details: Abutilon theophrasti, 504 h, visual assessment about 3 weeks after treatment vs untreated controls; for pest or weed control at 5 g/ha: dosage 5 g/ha; for pest or weed control at 20 g/ha: dosage 20 g/ha
Outline: (§2)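 Spray, one-leaf stage: WP or EC compound in water, 600–800 l/ha, 0.2% wetting agent. Plants held about 3 weeks in the greenhouse, then visually rated in percent of kill compared with untreated controls.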

[15] = test system: ALOMY; test: Post-emergence herbicidal action against ALOMY; assay type: in vivo, Alopecurus myosuroides; details: Alopecurus myosuroides, 504 h, dosage 20 g/ha, visual assessment about 3 weeks after treatment vs untreated controls
Outline: as §2

[16] = test system: AMARE; test: Post-emergence herbicidal action against AMARE; assay type: in vivo, Amaranthus retroflexus; details: Amaranthus retroflexus, 504 h, 20 g/ha, visual assessment about 3 weeks after treatment, 100% = plants have died, 0% = like control plants
Outline: as §2

[17] = test system: AVEFA; test: Post-emergence herbicidal action against AVEFA; assay type: in vivo, Avena fatua; details: Avena fatua, 504 h, 20 g/ha, visual assessment about 3 weeks after treatment, 100% = plants have died, 0% = like control plants
Outline: as §2

[18] = test system: ECHCG; test: Post-emergence herbicidal action against ECHCG; assay type: in vivo, Echinochloa crus-galli; details: Echinochloa crus-galli, 504 h; for pest or weed control at 20 g/ha: dosage 20 g/ha
Outline: as §2

[19] = test system: HORMU; test: Post-emergence herbicidal action against HORMU; assay type: in vivo, Hordeum murinum; details: Hordeum murinum, 504 h, dosage 20 g/ha
Outline: as §2

[20] = test system: MATIN; test: Post-emergence herbicidal action against MATIN; assay type: in vivo, Matricaria inodora; details: Tripleurospermum inodorum, 504 h; for pest or weed control at 20 g/ha: dosage 20 g/ha
Outline: as §2

[21] = test system: PHBPU; test: Post-emergence herbicidal action against PHBPU; assay type: in vivo, Pharbitis purpurea; details: Ipomoea purpurea, 504 h; for pest or weed control at 20 g/ha: dosage 20 g/ha
Outline: as §2

[22] = test system: POLCO; test: Post-emergence herbicidal action against POLCO; assay type: in vivo, Polygonum convolvulus; details: Fallopia convolvulus, 504 h, dosage 20 g/ha
Outline: as §2

[23] = test system: SETVI; test: Post-emergence herbicidal action against SETVI; assay type: in vivo, Setaria viridis; details: Setaria viridis, 504 h; for pest or weed control at 5 g/ha: dosage 5 g/ha; for pest or weed control at 20 g/ha: dosage 20 g/ha
Outline: as §2

[24] = test system: STEME; test: Post-emergence herbicidal action against STEME; assay type: in vivo, Stellaria media; details: Stellaria media, 504 h; for pest or weed control at 5 g/ha: dosage 5 g/ha
Outline: as §2

[25] = test system: VIOTR; test: Post-emergence herbicidal action against VIOTR; assay type: in vivo, Viola tricolor; details: Viola tricolor, 504 h
Outline: as §2

[26] = test system: DIGSA; test: Post-emergence herbicidal action against DIGSA; assay type: in vivo, Digitaria sanguinalis; details: Digitaria sanguinalis, 504 h
Outline: as §2

[27] = test system: LOLRI; test: Pre-emergence herbicidal action against LOLRI; assay type: in vivo, Lolium rigidum; details: Lolium rigidum, 504 h, 80 g/ha
Outline: as §1

[28] = test system: VERPE; test: Pre-emergence herbicidal action against VERPE; assay type: in vivo, Veronica persica; details: Veronica persica, 504 h, dosage 80 g/ha
Outline: as §1

[29] = test system: VERPE; test: Post-emergence herbicidal action against VERPE; assay type: in vivo, Veronica persica; details: Veronica persica, 504 h
Outline: as §2

CCNC(=O)c1c(C(F)(F)F)ccc(C(=O)Nc2nnnn2CC)c1C [Example 2-26]
100%: pest or weed control at 80 g/ha [1] | pest or weed control at 20 g/ha [1] | pest or weed control at 80 g/ha [2] | pest or weed control at 20 g/ha [3] | pest or weed control at 80 g/ha [3] | pest or weed control at 80 g/ha [4] | pest or weed control at 80 g/ha [5] | pest or weed control at 20 g/ha [7] | pest or weed control at 80 g/ha [7] | pest or weed control at 80 g/ha ([8]; dosage 80 g/ha) | pest or weed control at 80 g/ha [10] | pest or weed control at 20 g/ha [11] | pest or weed control at 80 g/ha [11] | pest or weed control at 20 g/ha [12] | pest or weed control at 80 g/ha [12] | pest or weed control at 20 g/ha [13] | pest or weed control at 80 g/ha [13] | pest or weed control at 5 g/ha [14] | pest or weed control at 20 g/ha [14] | pest or weed control at 20 g/ha [16] | pest or weed control at 20 g/ha [23]
90%: pest or weed control at 80 g/ha [6] | pest or weed control at 20 g/ha ([8]; dosage 20 g/ha) | pest or weed control at 20 g/ha [20] | pest or weed control at 20 g/ha [24] | pest or weed control at 5 g/ha [26] | pest or weed control at 20 g/ha [26]
80%: pest or weed control at 20 g/ha [4] | pest or weed control at 80 g/ha [9] | pest or weed control at 20 g/ha [10] | pest or weed control at 20 g/ha [15] | pest or weed control at 20 g/ha [17] | pest or weed control at 5 g/ha ([18]; dosage 5 g/ha) | pest or weed control at 20 g/ha [18] | pest or weed control at 20 g/ha [19] | pest or weed control at 5 g/ha ([20]; dosage 5 g/ha) | pest or weed control at 5 g/ha ([21]; dosage 5 g/ha) | pest or weed control at 20 g/ha [21] | pest or weed control at 20 g/ha [22] | pest or weed control at 5 g/ha [23] | pest or weed control at 5 g/ha [24] | pest or weed control at 20 g/ha [25]

Cn1nnnc1NC(=O)c1ccc(C(F)F)c(C(=O)NC2CC2)c1Cl [Example 1-149]
90%: pest or weed control at 80 g/ha [2] | pest or weed control at 80 g/ha [6] | pest or weed control at 80 g/ha [27] | pest or weed control at 20 g/ha [10] | pest or weed control at 20 g/ha [11] | pest or weed control at 20 g/ha [21] | pest or weed control at 20 g/ha [24] | pest or weed control at 5 g/ha [24]
80%: pest or weed control at 20 g/ha [2] | pest or weed control at 20 g/ha [4] | pest or weed control at 80 g/ha [9] | pest or weed control at 5 g/ha [14] | pest or weed control at 20 g/ha [15] | pest or weed control at 20 g/ha [18] | pest or weed control at 5 g/ha ([29]; 5 g/ha)
100%: pest or weed control at 80 g/ha [1] | pest or weed control at 20 g/ha [1] | pest or weed control at 20 g/ha [3] | pest or weed control at 80 g/ha [3] | pest or weed control at 80 g/ha [4] | pest or weed control at 80 g/ha [5] | pest or weed control at 20 g/ha [7] | pest or weed control at 80 g/ha [7] | pest or weed control at 80 g/ha [10] | pest or weed control at 80 g/ha [11] | pest or weed control at 80 g/ha [28] | pest or weed control at 20 g/ha [12] | pest or weed control at 80 g/ha [12] | pest or weed control at 20 g/ha [13] | pest or weed control at 80 g/ha [13] | pest or weed control at 20 g/ha [14] | pest or weed control at 20 g/ha [16] | pest or weed control at 20 g/ha [17] | pest or weed control at 20 g/ha [20] | pest or weed control at 20 g/ha [22] | pest or weed control at 5 g/ha [23] | pest or weed control at 20 g/ha [23] | pest or weed control at 20 g/ha ([29]; 20 g/ha) | pest or weed control at 5 g/ha [25] | pest or weed control at 20 g/ha [25] | pest or weed control at 5 g/ha [26] | pest or weed control at 20 g/ha [26]

CCNC(=O)c1c(C(F)(F)F)ccc(C(=O)Nc2nnnn2CC)c1Cl [Example 2-130]
90%: pest or weed control at 20 g/ha [2] | pest or weed control at 20 g/ha [4] | Pre-emergence action against HORMU ([6]; 20 g/ha, scored visually after 3 weeks, 100% = plants have died, 0% = like control plants) | pest or weed control at 20 g/ha [10] | pest or weed control at 5 g/ha [14] | pest or weed control at 20 g/ha [14] | pest or weed control at 20 g/ha [17] | pest or weed control at 5 g/ha [25]
80%: pest or weed control at 20 g/ha ([5]; 20 g/ha) | pest or weed control at 80 g/ha [28] | pest or weed control at 20 g/ha [15] | pest or weed control at 20 g/ha [18] | pest or weed control at 20 g/ha [20] | pest or weed control at 20 g/ha [22] | pest or weed control at 20 g/ha [24] | pest or weed control at 5 g/ha [24] | pest or weed control at 5 g/ha [26] | pest or weed control at 20 g/ha [26]
100%: pest or weed control at 80 g/ha [1] | pest or weed control at 20 g/ha [1] | pest or weed control at 80 g/ha [2] | pest or weed control at 20 g/ha [3] | pest or weed control at 80 g/ha [3] | pest or weed control at 80 g/ha [4] | pest or weed control at 80 g/ha [5] | pest or weed control at 80 g/ha [6] | pest or weed control at 80 g/ha [27] | pest or weed control at 20 g/ha [7] | pest or weed control at 80 g/ha [7] | pest or weed control at 80 g/ha [10] | pest or weed control at 20 g/ha [11] | pest or weed control at 80 g/ha [11] | pest or weed control at 20 g/ha [12] | pest or weed control at 80 g/ha [12] | pest or weed control at 20 g/ha [13] | pest or weed control at 80 g/ha [13] | pest or weed control at 20 g/ha [16] | pest or weed control at 20 g/ha [25]

From US12655116B2, “Substituted isophthalic acid diamides” (Bayer Aktiengesellschaft, priority 2020, dated 2026)
